Tests used:
[1] = system: human dermal fibroblasts (hDFs); assay: 2D cell morphology by bright field transmission microscopy; format: cell-based; conditions: positive control, 1% in media, 24 hour incubation
Excerpt: Images were taken with a Motic AE2000 inverted microscope in bright field transmission through the bottom of transparent 96 well plates. Images from 2D cell culture were processed in GNU Image Manipulation Program V 2.10.12. Contrast was enhanced by changing light and dark levels to maximize the dynamic range of the image. The illumination artifacts were removed by creating a duplicate image on a separate layer and blurring it with a Gaussian blur strength 12.0. This layer was placed below the normal layer, and the two layers were mixed in the “Grain Extract” mixing mode. This process inverts the colors, so the color was inverted again to restore the original orientation.
Cellular morphology is an independent method of assessing cellular health. When healthy, cells like hDFs will adhere to flat plates in 2D culture and multiply rapidly, until they form a confluent layer. The pressure from surrounding cells tends to cause the cells to adopt an elongated and tubular morphology, often aligned with their neighboring cells. When cells are damaged, they will often suffer cytoskeletal damage and will lose their elongated morphology. Dead HDFs will be at the extreme end of this trend, appearing as very small spheres, devoid of cytoskeleton entirely.

[2] = system: human dermal fibroblasts (hDFs); assay: Fluorescence microscopy of tattooed 3D skin-simulating scaffolds; format: cell-based; conditions: 7 days after tattooing, phalloidin and DAPI staining
Experimental: Cell-laden 3D scaffolds were fixed in a 2% formalin solution in PBS for 2 hours with gentle oscillatory mixing. All subsequent washing steps were performed for 30 minutes with oscillatory mixing with the indicated solution. The formalin solution was then decanted, and the scaffolds were washed 3 times with DI water. The cell membranes were permeabilized by washing the scaffolds with acetone solution (50% v/v acetone in 1×PBS) for 30 minutes. The samples were then washed 3 times with PBS-T (1×PBS, […]), then blocked with 1 mg/mL BSA in PBS-T (1×PBS, 0.1% Triton X-100). Actin was stained with phalloidin-488 (Invitrogen A12379) for 1 hour, then washed 3 times with 1×PBS. Nuclei were stained with DAPI (Invitrogen D3571) for 30 minutes then washed with PBS 3 times. Scaffolds were stored in 1×PBS at 4 C until imaged.
Fixed and stained samples as well as tattooed imaging phantoms were imaged with a Keyence BZ-X710 all-in-one fluorescence microscope. The DAPI filter channel (ex/em 355/450) was used to image both the DAPI stain, fluorescent pyrazoline-laden microparticles, and aqueous SilMA-pyrazoline tattoo inks. The GFP channel (ex/em 488/510) was used to image the phalloidin-stained actin.
Silk fibroin solution (5% w/w) was pipetted into a 24 well plate (1.5 mL per well) and frozen at −20 C. […]

[3] = system: human dermal fibroblasts (hDFs); assay: 2D metabolic toxicity assay (MTT); conditions: positive control, 1% in media, 24 hours

Substance: Triton X-100
- cellular morphology [1]: small hard spheres indicative of dead cells
- cell morphology / localized cytotoxicity in 3D scaffold [2]: only background fluorescence
- metabolic capacity (MTT) [3]: completely destroyed the metabolic capacity of the cells

Source: patent US20260124324A1, “PHOTOCLICK CHEMISTRY OF SILK FOR TEMPORARY UV TATTOOS” (Trustees of Tufts College, priority 2023, published 2026)
